Assay results: PMC12024264, “Frog Skin Peptides Hylin-a1, AR-23, and RV-23: Promising Tools Against Carbapenem-Resistant Escherichia coli and Klebsiella pneumoniae Infections” (Antibiotics, 2025)
≈ marks a conversion by molar mass, not a printed value. Read-outs that look alike come from different tables or passages of the source.

Legend:
Assay in all cases: Antibiotic resistance profile of clinical isolate (Table S1)
K. pneumoniae 1711 = type: cell-based, Klebsiella pneumoniae
Protocol: (§1) Each strain was grown in Mueller Hinton Broth (MH Broth), and 5 × 10^5 CFU/mL was used to evaluate antibacterial activity. Clinical carbapenem-resistant K. pneumoniae and E. coli isolates were collected at the AOU of Virology and Microbiology of the University of Campania “Luigi Vanvitelli”. […]
(§2) Table S1. Antibiotic resistance profile of K. pneumoniae and E. coli clinical isolates . MIC: Minimum Inhibitory
(§3) Concentration was expressed in µg/mL; S: Sensible; I: Intermediate; R: Resistant.
(§4) Antibiotic Resistance Profile of the Clinical Isolated Bacteria
(§5) Antibiotics MIC (µg/mL) Interpretation […]

K. pneumoniae 1745 = type: cell-based, Klebsiella pneumoniae
Protocol: as §1, §2, §3, §4, §5

K. pneumoniae 1746 = type: cell-based, Klebsiella pneumoniae
Protocol: as §1, §2, §3, §4, §5

K. pneumoniae 311 = type: cell-based, Klebsiella pneumoniae
Protocol: as §1, §2, §3, §4, §5

E. coli 2267 = type: cell-based, Escherichia coli
Protocol: as §1, §2, §3, §4, §5

E. coli 1376 = type: cell-based, Escherichia coli
Protocol: as §1, §2, §3, §4, §5

E. coli 3140 = type: cell-based, Escherichia coli
Protocol: as §1, §2, §3, §4, §5

E. coli 1441 = type: cell-based, Escherichia coli
Protocol: as §1, §2, §3, §4, §5

E. coli 716 = type: cell-based, Escherichia coli
Protocol: as §1, §2, §3, §4, §5

[1] = Klebsiella pneumoniae, Table S1, K. pneumoniae 1711, read-out: MIC
[2] = Klebsiella pneumoniae, Table S1, K. pneumoniae 1745, read-out: MIC
[3] = Escherichia coli, Table S1, E. coli 2267, read-out: MIC

Compound	MIC (K. pneumoniae 1711; [1]) [µg/mL]	Interpretation (K. pneumoniae 1711; Table S1, K. pneumoniae 1711)	MIC (K. pneumoniae 1745; [2]) [µg/mL]	Interpretation (K. pneumoniae 1745; Table S1, K. pneumoniae 1745)	MIC (K. pneumoniae 1746; Klebsiella pneumoniae, 1746) [µg/mL]	Interpretation (K. pneumoniae 1746; Table S1, K. pneumoniae 1746)	MIC (K. pneumoniae 311; Klebsiella pneumoniae, 311) [µg/mL]	Interpretation (K. pneumoniae 311; Table S1, K. pneumoniae 311)	MIC (E. coli 2267; [3]) [µg/mL]	Interpretation (E. coli 2267; Table S1, E. coli 2267)	MIC (E. coli 1376; Escherichia coli, 1376) [µg/mL]	Interpretation (E. coli 1376; Table S1, E. coli 1376)	MIC (E. coli 3140; Escherichia coli, 3140) [µg/mL]	Interpretation (E. coli 3140; Table S1, E. coli 3140)	MIC (E. coli 1441; Escherichia coli, 1441) [µg/mL]	Interpretation (E. coli 1441; Table S1, E. coli 1441)	MIC (E. coli 716; Escherichia coli, 716) [µg/mL]	Interpretation (E. coli 716; Table S1, E. coli 716)	MIC (K. pneumoniae 1711; Table S1, K. pneumoniae 1711)	MIC (K. pneumoniae 1745; Table S1, K. pneumoniae 1745)	further results
NC[C@H]1O[C@H](O[C@H]2[C@H](O)[C@@H](O[C@H]3O[C@H](CO)[C@@H](O)[C@H](N)[C@H]3O)[C@H](N)C[C@@H]2N)[C@H](N)C[C@@H]1O [Tobramycin]	> 4	R	> 4	R	> 4	R	> 4	R	≤ 1	S	> 4	R	≤ 1	S	≤ 1	S	≤ 1	S			
CC1(C)S[C@@H]2[C@H](NC(=O)[C@H](N)c3ccccc3)C(=O)N2[C@H]1C(=O)O [Ampicillin]		R		R	> 8	R	> 8	R		R	> 8	R	> 8	R	> 8	R	> 8	R			MIC (K. pneumoniae 1711; Klebsiella pneumoniae, 1711): > 8 µg/mL; MIC (K. pneumoniae 1745; Klebsiella pneumoniae, 1745): > 8 µg/mL; MIC (E. coli 2267; Escherichia coli, 2267): > 8 µg/mL
CO/N=C(\C(=O)N[C@@H]1C(=O)N2C(C(=O)O)=C(CSc3nc(=O)c(=O)[nH]n3C)CS[C@H]12)c1csc(N)n1 [Ceftriaxone]	> 4	R	> 4	R	> 4	R	> 4	R	> 4	R	> 4	R	≤ 0.5	S	> 4	R	> 4	R			
C[C@@H](O)[C@H]1C(=O)N2C(C(=O)O)=C(S[C@@H]3CN[C@H](C(=O)Nc4cccc(C(=O)O)c4)C3)[C@H](C)[C@H]12 [Ertapenem]	> 1	R	> 1	R	> 1	R	> 1	R	> 1	R	> 1	R	> 1	R	> 1	R	> 1	R			
NCC[C@H](O)C(=O)N[C@@H]1C[C@H](N)[C@@H](O[C@H]2O[C@H](CN)[C@@H](O)[C@H](O)[C@H]2O)[C@H](O)[C@H]1O[C@H]1O[C@H](CO)[C@@H](O)[C@H](N)[C@H]1O [Amikacin]	≤ 4	S	8 (≈ 13.7 µM)	S	≤ 4	S	≤ 4	S	≤ 4	S	> 16	R	≤ 4	S	≤ 4	S	≤ 4	S			
Ceftolozano tazobactam		R		R		R		R		R		R		R		R		R	> 4/4	> 4/4	MIC (K. pneumoniae 1746; Table S1, K. pneumoniae 1746): > 4/4; MIC (K. pneumoniae 311; Table S1, K. pneumoniae 311): > 4/4; MIC (E. coli 2267; Table S1, E. coli 2267): > 4/4; MIC (E. coli 1376; Table S1, E. coli 1376): > 4/4; MIC (E. coli 3140; Table S1, E. coli 3140): > 4/4; MIC (E. coli 1441; Table S1, E. coli 1441): > 4/4; MIC (E. coli 716; Table S1, E. coli 716): > 4/4
Amoxicillin/clavulanate		R		R		R		R		R		R		R		R		R	> 32/2	> 32/2	MIC (K. pneumoniae 1746; Table S1, K. pneumoniae 1746): > 32/2; MIC (K. pneumoniae 311; Table S1, K. pneumoniae 311): > 32/2; MIC (E. coli 1376; Table S1, E. coli 1376): > 32/2; MIC (E. coli 1441; Table S1, E. coli 1441): > 32/2
Piperacillin/tazobactam		R		R		R		R		R		R		R		R		R	> 64/4	> 64/4	MIC (K. pneumoniae 1746; Table S1, K. pneumoniae 1746): 32/4; MIC (K. pneumoniae 311; Table S1, K. pneumoniae 311): > 64/4; MIC (E. coli 2267; Table S1, E. coli 2267): > 64/4; MIC (E. coli 1376; Table S1, E. coli 1376): > 64/4; MIC (E. coli 3140; Table S1, E. coli 3140): > 64/4; MIC (E. coli 1441; Table S1, E. coli 1441): > 64/4; MIC (E. coli 716; Table S1, E. coli 716): > 64/4
CC(C)(O/N=C(\C(=O)N[C@@H]1C(=O)N2C(C(=O)[O-])=C(C[n+]3ccccc3)CS[C@H]12)c1csc(N)n1)C(=O)O [Ceftazidime]	> 16	R	> 16	R	> 16	R	> 16	R	> 16	R	> 16	R	16 (≈ 29.3 µM)	R	> 16	R	> 16	R			
C[C@H]1COc2c(N3CCN(C)CC3)c(F)cc3c(=O)c(C(=O)O)cn1c23 [Levofloxacin]	> 1	R	> 1	R	1 (≈ 2.77 µM)	I	> 1	R	> 1	R	> 1	R	≤ 0.25	S	≤ 0.25	S	> 1	R			
